{"source": "patent US20120122115A1", "about": "“Bacterial quorum sensing biosensor” (priority 2006, published 2012)", "key": {"[1]": {"molecular_target": "CLPY biosensor (CFP-LuxP-YFP fusion) (Vibrio harveyi, UniProt P54300, D303A)", "experiment": "CLPY FRET binding affinity determination", "design": "species or system V. harveyi", "procedure": "The YFP or CFP fluorescence response of wild-type and mutant forms of CLPY (1.0 mL, 0.015 mg/mL) to different ligands is measured 5 minutes after addition of the ligand to the protein at room temperature. No time-dependent changes in the CLPY FRET ratio are observed after incubation for 5 minutes. All BAI-2 dilutions are carried out in a borate-free buffer to maintain the DPD:borate ratio (1:4). The CLPY FRET ratio response to different BAI-2 concentrations is used to generate the ligand binding saturation curve. For the determination of the binding affinity (Kd) and the binding stoichiometry n, a nonlinear regression analysis equation (Equation 4) is used as shown below: […]\nwhere R is the observed CLPY FRET ratio response for different ligand concentrations (s) and Rmax and Rmin represent the ligand-free and ligand-saturated FRET ratios, respectively."}, "[2]": {"system": "V. harveyi strain MM30 (luxS-)", "experiment": "Bacterial reporter bioassay (luminescence) and EC50 determination", "assay_type": "cell-based", "conditions": "MM30 in borate-free AB medium", "procedure": "V. harveyi strain MM30 (luxS^−) is grown overnight at 28° C. for 16 hours and diluted 1:5000 in fresh borate-free AB medium. Bacteria (90 μL) are added to a 96-well microtiter plate containing 10 μL dilutions of the sample and incubated for 4 hours at 30° C. Luminescence is read using a Wallac Victor2 multimode plate reader (Perkin-Elmer). The BAI-2 concentration required for 50% maximum luminescence response (EC50) is determined using a relationship based on the luminescence response L for different ligand concentrations (s)\nwhere Lmin and Lmax represent the minimum and maximum luminescence responses, respectively, at the time of measurement."}}, "data": [{"smiles": "OB(O)O", "note": "[borate]", "values": [{"measurement": "CLPY FRET response", "setting": "[1]; borate ≦400 μM", "result": "did not exhibit any detectable FRET response"}, {"measurement": "bacterial reporter strain luminescence response (qualitative)", "setting": "[2]", "result": "did not respond"}]}, {"smiles": "CC(=O)C(=O)C(O)CO", "note": "(stereo not shown) [DPD, 4,5-dihydroxy-2,3-pentanedione]", "values": [{"measurement": "CLPY FRET response", "setting": "[1]; DPD ≦100 μM", "result": "did not exhibit any detectable FRET response"}, {"measurement": "bacterial reporter strain luminescence response (qualitative)", "setting": "[2]", "result": "did not respond"}]}]}
